Results on 4 molecules are retold here after paper PMC10250385, “Pregnane X receptor agonist nomilin extends lifespan and healthspan in preclinical models through detoxification functions” (Nature Communications, 2023).

The target of data set [1] is T1, human pregnane X receptor (hPXR) (Homo sapiens, UniProt O75469).
T1 sequence (O75469 130-434 limits assumed): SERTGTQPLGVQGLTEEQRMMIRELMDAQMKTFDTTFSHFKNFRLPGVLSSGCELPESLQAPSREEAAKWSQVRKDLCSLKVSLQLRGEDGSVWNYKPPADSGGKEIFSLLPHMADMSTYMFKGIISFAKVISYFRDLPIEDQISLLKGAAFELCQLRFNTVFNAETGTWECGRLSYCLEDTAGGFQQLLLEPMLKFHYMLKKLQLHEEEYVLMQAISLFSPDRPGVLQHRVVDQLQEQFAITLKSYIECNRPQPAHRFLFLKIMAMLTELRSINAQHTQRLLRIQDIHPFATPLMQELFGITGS
Nature of the data set: biochemical. The arrangement: gene NR1I2.

Data set [2] addresses T1, human pregnane X receptor (hPXR). Nature of the data set: TR-FRET competitive binding assay (LanthaScreen PXR); also activates hPXR in reporter assay. Set-up: gene NR1I2; hPXR-LBD-GST.
The target in data set [3] is T2, ligand-binding domain (LBD) of human pregnane X receptor (hPXR), residues 130–432 (human, UniProt O75469-1 130-432).
T2 construct: In the crystal it stood on one chain with the NCOA1 peptide, joined by the spacer SSSGGT: see m1; also called hPXR LBD; hPXR^LBD; source: Sf9 (recombinant baculovirus), purified, as part of the fusion protein m1
T2 sequence (looked up): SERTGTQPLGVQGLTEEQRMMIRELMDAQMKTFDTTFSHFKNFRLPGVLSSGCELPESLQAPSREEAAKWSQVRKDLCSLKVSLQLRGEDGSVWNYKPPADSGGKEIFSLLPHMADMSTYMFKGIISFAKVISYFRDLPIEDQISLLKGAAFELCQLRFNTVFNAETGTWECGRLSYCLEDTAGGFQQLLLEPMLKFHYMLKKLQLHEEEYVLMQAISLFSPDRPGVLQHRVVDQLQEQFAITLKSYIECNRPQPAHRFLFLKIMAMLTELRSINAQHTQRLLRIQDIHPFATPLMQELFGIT
Nature of the data set: crystal structure; hPXR^LBD-NCOA1^676–700 co-crystallised with nomilin (1 mM), sitting drop vapour diffusion at 4 °C, 10% (v/v) 2-propanol, 100 mM imidazole/HCl pH 8.0; 2.1 Å; the homodimer is also said to form in the purification (SEC in 150 mM NaCl, 20 mM HEPES, 1 mM TCEP). The settings on record: both partners purified.

Data set [4] concerns the molecule itself. Described as above.

Turning to `CC(=O)O[C@H]1CC(=O)OC(C)(C)[C@@H]2CC(=O)[C@]3(C)[C@H](CC[C@@]4(C)[C@H](c5ccoc5)OC(=O)[C@H]5O[C@]543)[C@@]12C` [nomilin], 5.8 µM corresponded to half-maximal inhibition in data set [1] (IC50).

`CC1(C)OC(=O)C[C@H](O)[C@]2(C)[C@H]3CC[C@@]4(C)[C@H](c5ccoc5)OC(=O)[C@H]5O[C@]54[C@]3(C)C(=O)C[C@@H]12` [deacetylnomilin]: the IC50 in data set [2] turned out to be 22.7 µM.

B1: nuclear receptor coactivator 1 residues 676–700 (NCOA1^676–700) (peptide, UniProt Q15788-1 676-700, looked up)
peptide: CPSSHSSLTERHKILHRLLQEGSPS
notes: In the crystal it stood on one chain with the hPXR LBD, joined to its C-terminus by the spacer SSSGGT: see m1; source: Sf9 (recombinant baculovirus), purified, as part of the fusion protein m1; not shown: His6, C-terminal, cleaved
For the molecule B1, the binding result in data set [3] is “binds”.

B2: hPXR^LBD-NCOA1^676–700 fusion protein (other)
chain: SERTGTQPLGVQGLTEEQRMMIRELMDAQMKTFDTTFSHFKNFRLPGVLSSGCELPESLQAPSREEAAKWSQVRKDLCSLKVSLQLRGEDGSVWNYKPPADSGGKEIFSLLPHMADMSTYMFKGIISFAKVISYFRDLPIEDQISLLKGAAFELCQLRFNTVFNAETGTWECGRLSYCLEDTAGGFQQLLLEPMLKFHYMLKKLQLHEEEYVLMQAISLFSPDRPGVLQHRVVDQLQEQFAITLKSYIECNRPQPAHRFLFLKIMAMLTELRSINAQHTQRLLRIQDIHPFATPLMQELFGITSSSGGTCPSSHSSLTERHKILHRLLQEGSPS
notes: spacer -Ser-Ser-Ser-Gly-Gly-Thr- between the hPXR LBD and the NCOA1 peptide; A TEV protease recognition site stood between the NCOA1 peptide and the His6 tag; Crystallised with nomilin in the ligand pocket; also called hPXR chimera; source: Sf9 (recombinant baculovirus), purified (Talon IMAC, TEV cleavage, second IMAC, SEC on Superdex 200 Increase); not shown: His6, C-terminal, cleaved
As for B2, in data set [4], the “stoichiometry N” value stood at 2.
